Reference: PubChem BioAssay AID977605 (Broad Institute, 2014)
Activity calls are given as the source filed them.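 The calls were made as follows: active = fitted curve reaches 40% activation below the top valid tested dose, in every test run; inconclusive = test runs disagree on the call; inactive = the rest, including effects opposite to the expected direction.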

Experiment: E-selectin inducers in HUVECs, dose response, imaging, HUVEC, cherry-picked samples (AID 977605);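 also: signal is the share of imaged cells scored positive for E-selectin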
Details: HUVEC E-selectin immunostaining, at 16 µM (top of the series), percent of TNF-alpha response over vehicle

SMILES	activation
C[C@H](CO)N1C[C@H](C)[C@@H](CN(C)S(=O)(=O)c2cn(C)cn2)Oc2ccc(NC(=O)CCCCCC(=O)Nc3ccccc3N)cc2C1=O	-0.01% (inactive)

Same assay, conditions: HUVEC E-selectin immunostaining, at 18 µM (top of the series), percent of TNF-alpha response over vehicle

SMILES	activation
CN1c2ccc(C#Cc3cccnc3)cc2[C@@H]2[C@@H](CCN2C(=O)C2CCC2)[C@H]1CO	-0.065% (inactive)

Same assay, conditions: HUVEC E-selectin immunostaining, at 19.5 µM (top of the series)

SMILES	activation
Cc1cccc(CN2CCCC(C(=O)c3ccc4c(c3)OCO4)C2)n1 (centres undefined)	4.78% (inactive)
NC(C(=O)O)c1cc(=O)[nH]o1 (centres undefined)	0.044% (inactive)

Same assay, conditions: HUVEC E-selectin immunostaining, at 19.5 µM (top of the series), percent of TNF-alpha response over vehicle

SMILES	activation
C[C@@H]1CN([C@@H](C)CO)C(=O)Cc2cc(NC(=O)C3CC3)ccc2O[C@@H]1CN(C)Cc1ccc2c(c1)OCO2	-0.129% (inactive)
CC1CCCC(C)N1C(=O)CSc1nc2c(c(=O)n(C)c(=O)n2C)n1C (centres undefined)	-0.005% (inactive)
Cc1ccc(N2C(=O)[C@@H]3C(c4cccnc4)=NO[C@@H]3C2=O)c(C)c1	0.363% (inactive)
Cc1ccc(S(=O)(=O)N(C)C[C@@H]2Oc3ccc(N(C)C)cc3C(=O)N([C@H](C)CO)C[C@H]2C)cc1	0.022% (inactive)
Cc1noc(C)c1S(=O)(=O)Nc1ccc2c(c1)C(=O)N([C@@H](C)CO)C[C@@H](C)[C@@H](CN(C)Cc1ccc3c(c1)OCO3)O2	-0.115% (inactive)
C[C@@H]1CN([C@@H](C)CO)C(=O)c2cc(NC(=O)Nc3ccc(F)cc3)ccc2O[C@@H]1CN(C)S(=O)(=O)c1cccs1	-0.142% (inactive)
COc1ccccc1N1CCN(C(=O)c2ccco2)CC1	1.75% (inactive)
C[C@@H]1CN([C@@H](C)CO)C(=O)Cc2cc(NC(=O)Nc3ccc4c(c3)OCO4)ccc2O[C@H]1CN(C)C	-0.168% (inactive)
CCOC(=O)N1CCN(c2c(N3CCOCC3)c(=O)c2=O)CC1	7.45% (inactive)
C[C@H]1CN([C@@H](C)CO)C(=O)Cc2cc(NC(=O)NC3CCCCC3)ccc2O[C@@H]1CN(C)Cc1ccc(Cl)c(Cl)c1	0.088% (inactive)
CCC(=O)N(C)C[C@H]1Oc2ncc(Br)cc2C(=O)N([C@@H](C)CO)C[C@@H]1C	0.243% (inactive)
Cc1ccc(S(=O)(=O)N[C@@H](Cc2ccccc2)C(=O)N2CCC(C(=O)N[C@@H](CCC(N)=O)C(=O)O)CC2)cc1	0.009% (inactive)
CNC[C@H]1Oc2ccc(N(C)C)cc2C(=O)N([C@@H](C)CO)C[C@H]1C	0.27% (inactive)
COc1ccc(N2CCN(C(=O)c3ccccc3NC(=O)C3=C(C)OCCS3)CC2)cc1	-0.181% (inactive)
C[C@@H]1CN([C@H](C)CO)C(=O)c2cccc(NC(=O)CCCCCC(=O)Nc3ccccc3N)c2O[C@@H]1CN(C)S(=O)(=O)c1cn(C)cn1	-0.195% (inactive)
CCCC#Cc1ccc2c(c1)O[C@@H](CN(C)C(=O)c1ccccc1)[C@@H](C)CN([C@H](C)CO)S2(=O)=O	-0.25% (inactive)
C[C@@H]1CN([C@H](C)CO)C(=O)Cc2cc(NC(=O)Cc3ccccc3)ccc2O[C@H]1CN(C)S(C)(=O)=O	-0.135% (inactive)
CC(C)(C)CC(=O)Nc1ccc(-c2cn3cccnc3n2)cc1	0.057% (inactive)
Cc1c(C(=O)NCc2ccco2)oc2ccccc12	-0.246% (inactive)
C[C@@H]1CCCCO[C@@H](CN(C)S(C)(=O)=O)[C@@H](C)CN([C@H](C)CO)C(=O)c2cc(NC(=O)CCCN(C)C)ccc2O1	-0.145% (inactive)
Cc1noc(C)c1NC(=O)N(C)C[C@H]1Oc2ccc(NS(=O)(=O)c3cccs3)cc2C(=O)N([C@H](C)CO)C[C@@H]1C	3.28% (inactive)
C[C@H]1CN([C@@H](C)CO)C(=O)c2cc(NC(=O)Cn3cnnn3)ccc2O[C@@H]1CN(C)Cc1ccc(Oc2ccccc2)cc1	-0.201% (inactive)
C[C@H](CO)N1C[C@H](C)[C@@H](CN(C)S(=O)(=O)c2cn(C)cn2)Oc2ccc(N(C)C)cc2C1=O	0.037% (inactive)
Cc1noc(C)c1NC(=O)Nc1ccc2c(c1)CC(=O)N([C@@H](C)CO)C[C@H](C)[C@@H](CN(C)C(=O)Nc1ccc(F)cc1)O2	-0.02% (inactive)
CC(C)NC(=O)N(C)C[C@@H]1Oc2ccc(NC(=O)CCN3CCOCC3)cc2C(=O)N([C@@H](C)CO)C[C@H]1C	0.429% (inactive)
CCn1c(CNc2ccc(Cl)cc2)nnc1SCC#N	-0.124% (inactive)
C[C@@H]1CN([C@H](C)CO)C(=O)Cc2cc(NS(C)(=O)=O)ccc2O[C@@H]1CN(C)S(=O)(=O)c1cn(C)cn1	13.4% (inactive)
C[C@H]1CN([C@@H](C)CO)C(=O)Cc2cc(NC(=O)Nc3ccc(F)cc3)ccc2O[C@H]1CN(C)C(=O)Nc1ccc(C(F)(F)F)cc1	0.219% (inactive)
C[C@H](CO)N1C[C@H](C)[C@@H](CN(C)S(=O)(=O)c2cn(C)cn2)Oc2ccc(NS(=O)(=O)c3ccc(Cl)cc3)cc2C1=O	-0.286% (inactive)
Cc1ccc(CNS(=O)(=O)c2ccc(C(F)(F)F)cc2)n1C	-0.139% (inactive)
